# Measured values taken from patent US4567197A, “1,3-Dioxan-5-ylalkenoic acids” (Imperial Chemical Industries PLC, priority 1982, dated 1986).
# Experiments:
# [1] = test system: hypertensive effects of the TXA2 mimetic U46619; experiment: antagonism of the hypertensive effect of U46619 in anaesthetised rats; assay type: in vivo, rat (Alderley Park strain); settings: for period of significant reduction of the hypertensive effects of U46619: oral administration, dose not stated
# Method: Male rats (Alderley Park strain) are anaesthetised with sodium pentabarbital and blood pressure is monitored at the carotid artery. The TXA2 mimetic agent known as U46619 (e.g. R. L. Jones, et alia, in "Chemistry, Biochemistry and Pharmacological Activity of Prostanoids" eds. S. M. Roberts and F. Scheinmann, at p.211; Pergamon Press, 1979) is administered intravenously via the jugular vein and an ED50 (dose necessary to produce 50% of the maximum hypertensive effect) is established (n=3). The ED50 for U46619 is approximately 5 μg/kg. A test compound is then administered either intravenously via the jugular vein or orally via a cannula directly into the stomach and the animal challenged with an ED50 dose of U46619, five minutes after dosing with test compound and then successively every ten minutes until the hypertensive effect of U46619 is no longer blocked.
# rabbit aortal strip = rabbit aortal strip test (a), TXA2 as agonist
# Method: (§1) As stated earlier, the compounds of formula I are antagonists of one or more of the actions of TXA2, for example certain of its actions on blood platelets, the vasculature and/or the lung.
# (a) The standard rabbit aortal strip model devised by Piper and Vane (Nature, 1969, 223, 29-35) using as agonist a freshly prepared sample of TXA2, generated by addition of arachidonic acid (25 μg. to citrated, platelet rich rabbit plasma (250 μl. ) and allowing the mixture to aggregate fully over 90 seconds before use;
# [2] = test system: citrated, platelet rich human plasma; experiment: blood platelet aggregation test (b), induced by arachidonic acid; assay type: cell-based; settings: aggregation induced by sub-maximal arachidonic acid (25-100 μg/ml.)
# Method: as §1
# (b) a standard blood platelet aggregation test based on that described by Born (Nature, 1962, 194, 927-929) and involving measuring the inhibition by a test compound of aggregation of citrated, platelet rich human plasma induced by a sub-maximal concentration (in the range 25-100 μg/ml.) of arachidonic acid; and […]
# [3] = test system: bronchoconstriction induced in the Konzett-Rossler guinea-pig model; experiment: bronchoconstriction test (c), Konzett-Rossler guinea-pig model, induced by U46619; assay type: in vivo; settings: 5 mg./kg. i.v., U46619 1-1.5 μg/kg i.v.
# Description: as §1
# (c) a standard bronchoconstriction test involving measuring the inhibition by a test compound of the bronchoconstriction induced in the Konzett-Rossler guinea-pig model (as modified by Collier and James, Brit. J. Pharmacol., 1967, 30, 283-307) by intravenous administration of the TXA2 mimetic agent, U46619 at 1-1.5 μg/kg.
SMILES,period of significant reduction of the hypertensive effects of U46619 [1],further results
"CCC1(CC)OC[C@@H](C/C=C\CCCC(=O)O)[C@@H](c2ccccc2)O1 (relative stereo) [Compound 1, 5(Z)-7-(2,2-diethyl-4-phenyl-1,3-dioxan-cis-5-yl)heptenoic acid]",at least 60 minutes,–
"O=C(O)CCC/C=C\C[C@@H]1COC2(CCCCC2)O[C@@H]1c1ccccc1 (relative stereo) [Compound 2, 5(Z)-7-(4'-phenyl-[cyclohexanespiro-2'-1,3-dioxan]-cis-5'-yl)heptenoic acid]",at least 60 minutes,–
CC1(C)OC[C@@H](C/C=C\CCCC(=O)O)[C@@H](c2cccc(F)c2)O1 (relative stereo) [Compound 3],at least 60 minutes,–
"COc1ccccc1[C@H]1OC(C)(C)OC[C@H]1C/C=C\CCCC(=O)O (relative stereo) [Compound 5, 5(Z)-7-[2,2-dimethyl-4-(2-methoxyphenyl)-1,3-dioxan-cis-5-yl]heptenoic acid]",at least 60 minutes,–
O=C(O)CCC/C=C\C[C@@H]1CO[C@H](c2ccccc2Cl)O[C@@H]1c1ccccc1 (relative stereo) [Compound 11],at least 60 minutes,–
O=C(O)CCC/C=C\C[C@@H]1CO[C@H](c2ccc(Cl)cc2)O[C@@H]1c1ccccc1 (relative stereo) [Compound 13],at least 60 minutes,–
CC(C)[C@H]1OC[C@@H](C/C=C\CCCC(=O)O)[C@@H](c2ccccc2)O1 (relative stereo) [Compound 20],at least 60 minutes,–
O=C(O)CCC/C=C\C[C@@H]1CO[C@H](c2ccc3c(c2)OCO3)O[C@@H]1c1ccccc1 (relative stereo) [Compound 21],at least 60 minutes,–
"C[C@H]1OC[C@@H](C/C=C\CCCC(=O)O)[C@@H](c2ccccc2)O1 (relative stereo) [Compound 23, 5(Z)-7-([2,4,5-cis]-2-methyl-4-phenyl-1,3-dioxan-5-yl)heptenoic acid]",at least 60 minutes,–
"Cc1ccccc1[C@H]1OC(C)(C)OC[C@H]1C/C=C\CCCC(=O)O (relative stereo) [Compound 24, 5(Z)-7-[2,2-dimethyl-4-(2-methylphenyl)-1,3-dioxan-cis-5-yl]heptenoic acid]",at least 60 minutes,–
"CC1(C)OC[C@@H](C/C=C\CCCC(=O)O)[C@@H](c2ccccc2)O1 (relative stereo) [Example 1, 5(Z)-7-(2,2-dimethyl-4-phenyl-1,3-dioxan-cis-5-yl)heptenoic acid]",–,pA2 (rabbit aortal strip): 6.28; IC50 [2]: ~67 µM; reduction of bronchoconstriction [3]: 90%
"CCC1(CC)OC[C@@H](C/C=C\CCCC(=O)O)[C@@H](c2ccccc2)O1 (single isomer, unassigned) [Example 100, (-)-5(Z)-(2,2-diethyl-4-phenyl-1,3-dioxan-cis-5-yl)heptenoic acid]",–,"period of significant reduction (>30%) of the hypertensive effects of U46619 ([1]; oral, 50 mg./kg.): 120 min; reduction of the hypertensive effects of U46619 ([1]; oral, 50 mg./kg., for a period of 120 minutes): > 30%"
"CCCCC[C@H](O)/C=C/[C@@H]1[C@@H](C/C=C\CCCC(=O)O)[C@H]2CO[C@@H]1C2 [Example U46619, reference compound]",–,"ED50 ([1]; Rattus norvegicus, intravenous via jugular vein, n=3, read-out: ED50 (dose necessary to produce 50% of the maximum hypertensive effect)): ~5 µg/kg"
